Among the data in US20100227887A1 (priority 2009, published 2010) are Ki and melting point values, retold here.

The first data set deals with T1, human mGlu 5a receptor (Homo sapiens, UniProt P41594).
T1 construct: expressed in transfected cells; host or cells: EBNA cells (transient transfection); cell membrane homogenates
T1 sequence (P41594 21-1180 isoform P41594-2 limits assumed): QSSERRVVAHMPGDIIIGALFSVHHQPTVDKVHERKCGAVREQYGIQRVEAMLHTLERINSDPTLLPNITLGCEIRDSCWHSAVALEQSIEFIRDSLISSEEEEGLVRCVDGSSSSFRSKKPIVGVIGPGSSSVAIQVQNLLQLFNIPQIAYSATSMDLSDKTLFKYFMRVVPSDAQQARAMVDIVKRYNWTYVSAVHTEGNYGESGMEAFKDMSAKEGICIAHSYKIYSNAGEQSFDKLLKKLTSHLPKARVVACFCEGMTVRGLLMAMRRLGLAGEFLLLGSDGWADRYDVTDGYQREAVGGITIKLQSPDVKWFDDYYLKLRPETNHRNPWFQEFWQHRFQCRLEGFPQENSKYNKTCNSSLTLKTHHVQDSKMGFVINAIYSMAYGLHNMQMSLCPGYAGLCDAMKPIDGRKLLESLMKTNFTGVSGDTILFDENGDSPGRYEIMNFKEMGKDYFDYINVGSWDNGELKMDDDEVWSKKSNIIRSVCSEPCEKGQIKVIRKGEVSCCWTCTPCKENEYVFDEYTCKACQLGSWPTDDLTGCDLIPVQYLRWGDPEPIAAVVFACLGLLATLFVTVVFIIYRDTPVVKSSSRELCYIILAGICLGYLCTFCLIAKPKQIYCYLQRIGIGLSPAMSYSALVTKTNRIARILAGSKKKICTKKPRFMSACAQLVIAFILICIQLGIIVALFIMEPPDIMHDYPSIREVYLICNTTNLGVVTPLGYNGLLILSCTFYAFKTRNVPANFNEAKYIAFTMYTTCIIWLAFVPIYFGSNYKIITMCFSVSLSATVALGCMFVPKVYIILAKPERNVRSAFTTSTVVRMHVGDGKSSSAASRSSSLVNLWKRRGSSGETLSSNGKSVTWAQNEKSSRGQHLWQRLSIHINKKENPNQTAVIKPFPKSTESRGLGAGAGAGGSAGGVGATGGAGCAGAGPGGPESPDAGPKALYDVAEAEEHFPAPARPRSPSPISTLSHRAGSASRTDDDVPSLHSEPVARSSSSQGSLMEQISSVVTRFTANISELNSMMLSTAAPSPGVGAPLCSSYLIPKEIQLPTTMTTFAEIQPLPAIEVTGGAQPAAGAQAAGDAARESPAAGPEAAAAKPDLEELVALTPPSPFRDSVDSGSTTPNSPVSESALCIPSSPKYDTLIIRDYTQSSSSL
The data set is described as follows: [3H]MPEP competition binding on membranes of EBNA cells transfected with human mGlu 5a receptor. Conditions: [3H]MPEP (2 nM) competition, 1 h at 4° C., EBNA cell membranes. On the procedure:
The pharmacological activity of the compounds was tested using the following method: For binding experiments, cDNA encoding human mGlu 5a receptor was transiently transfected into EBNA cells using a procedure described by Schlaeger and Christensen [Cytotechnology 15:1-13 (1998)]. Cell membrane homogenates were stored at −80° C. until the day of assay where upon they were thawed and resuspended and polytronised in 15 mM Tris-HCl, 120 mM NaCl, 100 mM KCl, 25 mM CaCl2, 25 mM MgCl2 binding buffer at pH 7.4 to a final assay concentration of 20 μg protein/well.
Saturation isotherms were determined by addition of twelve [^3H]MPEP concentrations (0.04-100 nM) to these membranes (in a total volume of 200 μl) for 1 h at 4° C. Competition experiments were performed with a fixed concentration of [^3H]MPEP (2 nM) and IC50 values of test compounds evaluated using 11 concentrations (0.3-10,000 nM). Incubations were performed for 1 h at 4° C.
At the end of the incubation, membranes were filtered onto unifilter (96-well white microplate with bonded GF/C filter preincubated 1 h in 0.1% PEI in wash buffer, Packard Bio-Science, Meriden, Conn.) with a Filtermate 96 harvester (Packard BioScience) and washed 3 times with cold 50 mM Tris-HCl, pH 7.4 buffer. Nonspecific binding was measured in the presence of 10 μM MPEP. The radioactivity on the filter was counted (3 min) on a Packard Top-count microplate scintillation counter with quenching correction after addition of 45 μl of microscint 40 (Canberra Packard S. A., Zürich, Switzerland) and shaking for 20 min.
For binding experiments the Ki values of the compounds tested are given. The Ki value is defined by the following formula: […]
in which the IC50 values are those concentrations of the compounds tested which cause 50% inhibition of the competing radioligand ([^3H]MPEP). L is the concentration of radioligand used in the binding experiment and the Kd value of the radioligand is empirically determined for each batch of membranes prepared.
`Cc1cc(C#N)cc(C(=O)Nc2ccn(C)n2)n1` [Example 1, 4-Cyano-6-methyl-pyridine-2-carboxylic acid (1-methyl-1H-pyrazol-3-yl)-amide]: the Ki (usually the dissociation constant of the complex between target and ligand, obtained from inhibition or displacement) was 38 nM.
Same read-out and setting: the value for `Cc1cc(Cl)cc(C(=O)Nc2ccn(C)n2)n1` [Example 2, 4-Chloro-6-methyl-pyridine-2-carboxylic acid (1-methyl-1H-pyrazol-3-yl)-amide] was 73 nM.
Consider `Cc1cc(C#N)cc(C(=O)Nc2nc(C)cs2)n1` [Example 3, 4-Cyano-6-methyl-pyridine-2-carboxylic acid (4-methyl-thiazol-2-yl)-amide], for which the Ki is 15 nM.
With `Cc1cc(C#N)cc(C(=O)Nc2ccc(F)cn2)n1` [Example 4, 4-Cyano-6-methyl-pyridine-2-carboxylic acid (5-fluoro-pyridin-2-yl)-amide], the Ki was found to be 6 nM.
As for `Cc1ccc(NC(=O)c2cc(C#N)cc(C)n2)nc1` [Example 5, 4-Cyano-6-methyl-pyridine-2-carboxylic acid (5-methyl-pyridin-2-yl)-amide], the inhibition constant (Ki) was 11 nM.
Still for that read-out and setting: the value for `Cc1cc(C#N)cc(C(=O)Nc2ccc(C#N)cn2)n1` [Example 6, 4-Cyano-6-methyl-pyridine-2-carboxylic acid (5-cyano-pyridin-2-yl)-amide] was 109 nM; that for `C#Cc1cc(C)nc(C(=O)Nc2ccn(C)n2)c1` [Example 7, 4-Ethynyl-6-methyl-pyridine-2-carboxylic acid (1-methyl-1H-pyrazol-3-yl)-amide] was 33 nM; that for `Cc1cc(Br)cc(C(=O)Nc2ccc(F)cn2)n1` [Example 8, 4-Bromo-6-methyl-pyridine-2-carboxylic acid (5-fluoro-pyridin-2-yl)-amide] was 37 nM.
Still for that read-out and setting: the value for `Cc1cc(C#N)cc(C(=O)Nc2ccc(Cl)cn2)n1` [Example 9, 4-Cyano-6-methyl-pyridine-2-carboxylic acid (5-chloro-pyridin-2-yl)-amide] was 8 nM; that for `Cc1cc(Br)cc(C(=O)Nc2ccc(F)c(C)n2)n1` [Example 10, 4-Bromo-6-methyl-pyridine-2-carboxylic acid (5-fluoro-6-methyl-pyridin-2-yl)-amide] was 61 nM.
On to `Cc1cc(C#N)cc(C(=O)Nc2ccc(F)c(C)n2)n1` [Example 11], for which the Ki turned out to be 57 nM.
On the same count and under the same terms, the value for `Cc1cc(C#N)c(C)c(C(=O)Nc2ccn(C)n2)n1` [Example 12, 4-Cyano-3,6-dimethyl-pyridine-2-carboxylic acid (1-methyl-1H-pyrazol-3-yl)-amide] was 143 nM.
Same read-out and setting: the value for `N#Cc1cc(C(=O)Nc2ccc(F)cn2)nc(C(F)(F)F)c1` [Example 16, 4-Cyano-6-trifluoromethyl-pyridine-2-carboxylic acid (5-fluoro-pyridin-2-yl)-amide] was 139 nM.
On the same count and under the same terms, the value for `Cc1cc(Cl)cc(C(=O)Nc2ccc(F)cn2)n1` [Example 18, 4-Chloro-6-methyl-pyridine-2-carboxylic acid (5-fluoro-pyridin-2-yl)-amide] was 30 nM.
As to `Cc1ccc(NC(=O)c2cc(Cl)cc(C)n2)nc1` [Example 19, 4-Chloro-6-methyl-pyridine-2-carboxylic acid (5-methyl-pyridin-2-yl)-amide], the Ki turned out to be 109 nM.
As to `Cc1cc(Cl)cc(C(=O)Nc2nc(C)cs2)n1` [Example 20, 4-Chloro-6-methyl-pyridine-2-carboxylic acid (4-methyl-thiazol-2-yl)-amide], the inhibition constant (Ki) was 14 nM.
On the same count and under the same terms, the value for `Cc1cc(C#N)cc(C(=O)Nc2ccnc(Cl)c2)n1` [Example 22, 4-Cyano-6-methyl-pyridine-2-carboxylic acid (2-chloro-pyridin-4-yl)-amide] was 25 nM; that for `Cc1cc(C#N)cc(C(=O)Nc2cccc(Cl)n2)n1` [Example 23, 4-Cyano-6-methyl-pyridine-2-carboxylic acid (6-chloro-pyridin-2-yl)-amide] was 8 nM; that for `CCc1cc(C#N)cc(C(=O)Nc2ccn(C)n2)n1` [Example 24, 4-Cyano-6-ethyl-pyridine-2-carboxylic acid (1-methyl-1H-pyrazol-3-yl)-amide] was 36 nM.
On the same count and under the same terms, the value for `CCc1cc(C#N)cc(C(=O)Nc2ccc(F)cn2)n1` [Example 25, 4-Cyano-6-ethyl-pyridine-2-carboxylic acid (5-fluoro-pyridin-2-yl)-amide] was 11 nM; that for `Cc1cc(C#N)cc(C(=O)Nc2cccc(Cl)c2)n1` [Example 26, 4-Cyano-6-methyl-pyridine-2-carboxylic acid (3-chloro-phenyl)-amide] was 6 nM; that for `Cc1cc(C#N)c(C)c(C(=O)Nc2ccc(F)cn2)n1` [Example 27, 4-Cyano-3,6-dimethyl-pyridine-2-carboxylic acid (5-fluoro-pyridin-2-yl)-amide] was 31 nM.

System in the next data set: not given
Assay: not given
Settings: not given
Regarding `Cc1cc(C#N)cc(C(=O)Nc2ccn(C)n2)n1` [Example 1, 4-Cyano-6-methyl-pyridine-2-carboxylic acid (1-methyl-1H-pyrazol-3-yl)-amide], the melting point (commonly the temperature of the solid-liquid transition) was 201 °C.
On the same count and under the same terms, the value for `Cc1cc(Cl)cc(C(=O)Nc2ccn(C)n2)n1` [Example 2, 4-Chloro-6-methyl-pyridine-2-carboxylic acid (1-methyl-1H-pyrazol-3-yl)-amide] was 203.5 °C; that for `Cc1cc(C#N)cc(C(=O)Nc2nc(C)cs2)n1` [Example 3, 4-Cyano-6-methyl-pyridine-2-carboxylic acid (4-methyl-thiazol-2-yl)-amide] was 211 °C.
The compound `Cc1cc(C#N)cc(C(=O)Nc2ccc(F)cn2)n1` [Example 4, 4-Cyano-6-methyl-pyridine-2-carboxylic acid (5-fluoro-pyridin-2-yl)-amide] returned a melting point of 204.5 °C.
As to `Cc1ccc(NC(=O)c2cc(C#N)cc(C)n2)nc1` [Example 5, 4-Cyano-6-methyl-pyridine-2-carboxylic acid (5-methyl-pyridin-2-yl)-amide], the melting point was determined as 196 °C.
Same read-out and setting: the value for `Cc1cc(C#N)cc(C(=O)Nc2ccc(C#N)cn2)n1` [Example 6, 4-Cyano-6-methyl-pyridine-2-carboxylic acid (5-cyano-pyridin-2-yl)-amide] was 279 °C; that for `C#Cc1cc(C)nc(C(=O)Nc2ccn(C)n2)c1` [Example 7, 4-Ethynyl-6-methyl-pyridine-2-carboxylic acid (1-methyl-1H-pyrazol-3-yl)-amide] was 226.5 °C.
Compound `Cc1cc(Br)cc(C(=O)Nc2ccc(F)cn2)n1` [Example 8, 4-Bromo-6-methyl-pyridine-2-carboxylic acid (5-fluoro-pyridin-2-yl)-amide] yielded a melting point of 160 °C.
`Cc1cc(C#N)cc(C(=O)Nc2ccc(Cl)cn2)n1` [Example 9, 4-Cyano-6-methyl-pyridine-2-carboxylic acid (5-chloro-pyridin-2-yl)-amide] gave a melting point of 233.5 °C.
As for `Cc1cc(Br)cc(C(=O)Nc2ccc(F)c(C)n2)n1` [Example 10, 4-Bromo-6-methyl-pyridine-2-carboxylic acid (5-fluoro-6-methyl-pyridin-2-yl)-amide], the melting point amounted to 181.5 °C.
On the same count and under the same terms, the value for `Cc1cc(C#N)cc(C(=O)Nc2ccc(F)c(C)n2)n1` [Example 11] was 222 °C; that for `Cc1cc(C#N)c(C)c(C(=O)Nc2ccn(C)n2)n1` [Example 12, 4-Cyano-3,6-dimethyl-pyridine-2-carboxylic acid (1-methyl-1H-pyrazol-3-yl)-amide] was 180.5 °C; that for `CC(C)c1cc(C#N)cc(C(=O)Nc2ccn(C)n2)n1` [Example 13, 4-Cyano-6-isopropyl-pyridine-2-carboxylic acid (1-methyl-1H-pyrazol-3-yl)-amide] was 174 °C.
In the case of `Cn1ccc(NC(=O)c2cc(C#N)cc(C(F)(F)F)n2)n1` [Example 15, 4-Cyano-6-trifluoromethyl-pyridine-2-carboxylic acid (1-methyl-1H-pyrazol-3-yl)-amide], the melting point worked out at 190.5 °C.
The compound `N#Cc1cc(C(=O)Nc2ccc(F)cn2)nc(C(F)(F)F)c1` [Example 16, 4-Cyano-6-trifluoromethyl-pyridine-2-carboxylic acid (5-fluoro-pyridin-2-yl)-amide] returned a melting point of 186.5 °C.
In turn, `Cc1cc(Cl)cc(C(=O)Nc2ccc(Cl)cn2)n1` [Example 17, 4-Chloro-6-methyl-pyridine-2-carboxylic acid (5-chloro-pyridin-2-yl)-amide] came in with a melting point of 151 °C.
Take `Cc1cc(Cl)cc(C(=O)Nc2ccc(F)cn2)n1` [Example 18, 4-Chloro-6-methyl-pyridine-2-carboxylic acid (5-fluoro-pyridin-2-yl)-amide]: the melting point came to 156 °C.
`Cc1ccc(NC(=O)c2cc(Cl)cc(C)n2)nc1` [Example 19, 4-Chloro-6-methyl-pyridine-2-carboxylic acid (5-methyl-pyridin-2-yl)-amide] gave a melting point of 159 °C.
The same measure, in the same setting: the value for `Cc1cc(Cl)cc(C(=O)Nc2nc(C)cs2)n1` [Example 20, 4-Chloro-6-methyl-pyridine-2-carboxylic acid (4-methyl-thiazol-2-yl)-amide] was 176 °C.
On the same count and under the same terms, the value for `CCc1cc(Br)cc(C(=O)Nc2ccc(F)cn2)n1` [Example 21, 4-Bromo-6-ethyl-pyridine-2-carboxylic acid (5-fluoro-pyridin-2-yl)-amide] was 123.5 °C.
Turning to `Cc1cc(C#N)cc(C(=O)Nc2ccnc(Cl)c2)n1` [Example 22, 4-Cyano-6-methyl-pyridine-2-carboxylic acid (2-chloro-pyridin-4-yl)-amide], the melting point was 238.5 °C.
The compound `Cc1cc(C#N)cc(C(=O)Nc2cccc(Cl)n2)n1` [Example 23, 4-Cyano-6-methyl-pyridine-2-carboxylic acid (6-chloro-pyridin-2-yl)-amide] yielded a melting point of 222.5 °C.
Same read-out and setting: the value for `CCc1cc(C#N)cc(C(=O)Nc2ccn(C)n2)n1` [Example 24, 4-Cyano-6-ethyl-pyridine-2-carboxylic acid (1-methyl-1H-pyrazol-3-yl)-amide] was 164.5 °C.
`CCc1cc(C#N)cc(C(=O)Nc2ccc(F)cn2)n1` [Example 25, 4-Cyano-6-ethyl-pyridine-2-carboxylic acid (5-fluoro-pyridin-2-yl)-amide] came in with a melting point of 183.5 °C.
On to `Cc1cc(C#N)cc(C(=O)Nc2cccc(Cl)c2)n1` [Example 26, 4-Cyano-6-methyl-pyridine-2-carboxylic acid (3-chloro-phenyl)-amide], for which the melting point turned out to be 147.5 °C.
On the same count and under the same terms, the value for `Cc1cc(C#N)c(C)c(C(=O)Nc2ccc(F)cn2)n1` [Example 27, 4-Cyano-3,6-dimethyl-pyridine-2-carboxylic acid (5-fluoro-pyridin-2-yl)-amide] was 196.5 °C; that for `Cc1cc(C#N)c(C)c(C(=O)Nc2ccc(F)c(C)n2)n1` [Example 28, 4-Cyano-3,6-dimethyl-pyridine-2-carboxylic acid (5-fluoro-6-methyl-pyridin-2-yl)-amide] was 201 °C.
With `Cc1cc(C#N)c(C)c(C(=O)Nc2ccc(C#N)cn2)n1` [Example 31, 4-Cyano-3,6-dimethyl-pyridine-2-carboxylic acid (5-cyano-pyridin-2-yl)-amide], the melting point came to 216 °C.
The same measure, in the same setting: the value for `Cc1ccc(NC(=O)c2nc(C)cc(C#N)c2C)nc1` [Example 32, 4-Cyano-3,6-dimethyl-pyridine-2-carboxylic acid (5-methyl-pyridin-2-yl)-amide] was 212.5 °C; that for `N#Cc1cc(C(=O)Nc2ccc(Cl)cn2)nc(C(F)(F)F)c1` [Example 33, 4-Cyano-6-trifluoromethyl-pyridine-2-carboxylic acid (5-chloro-pyridin-2-yl)-amide] was 208 °C; that for `Cc1cc(Cl)cc(C(=O)Nc2ccnc(Cl)c2)n1` [Example 34, 4-Chloro-6-methyl-pyridine-2-carboxylic acid (2-chloro-pyridin-4-yl)-amide] was 221 °C.
In the case of `Cc1cc(C#N)cc(C(=O)Nc2ccc(F)cc2)n1` [Example 39, 4-Cyano-6-methyl-pyridine-2-carboxylic acid (4-fluoro-phenyl)-amide], the melting point amounted to 189 °C.
In the case of `Cc1cc(Cl)cc(C(=O)Nc2cccc(F)c2)n1` [Example 52, 4-Chloro-6-methyl-pyridine-2-carboxylic acid (3-fluoro-phenyl)-amide], the melting point is 123 °C.
`Cc1cc(NC(=O)c2cc(Cl)cc(C)n2)ccn1` [Example 53, 4-Chloro-6-methyl-pyridine-2-carboxylic acid (2-methyl-pyridin-4-yl)-amide]: the melting point worked out at 162 °C.
